Patent US12351587B2, “Bicyclic compound as RIP-1 kinase inhibitor and application thereof” (MEDSHINE DISCOVERY INC., priority 2019, dated 2025)

Legend:
RIP1 = target: T1, RIP1 (Homo sapiens, UniProt Q13546); experiment: Kinase selectivity assay (Eurofins, 33P radiolabeled kinase activity): RIP1; type: biochemical; conditions: WX009 1 μM, ATP 10 μM, read-out: Inhibition rate
T1 construct: purchased Eurofins Pharma Discovery Service
T1 sequence (Q13546 1-671): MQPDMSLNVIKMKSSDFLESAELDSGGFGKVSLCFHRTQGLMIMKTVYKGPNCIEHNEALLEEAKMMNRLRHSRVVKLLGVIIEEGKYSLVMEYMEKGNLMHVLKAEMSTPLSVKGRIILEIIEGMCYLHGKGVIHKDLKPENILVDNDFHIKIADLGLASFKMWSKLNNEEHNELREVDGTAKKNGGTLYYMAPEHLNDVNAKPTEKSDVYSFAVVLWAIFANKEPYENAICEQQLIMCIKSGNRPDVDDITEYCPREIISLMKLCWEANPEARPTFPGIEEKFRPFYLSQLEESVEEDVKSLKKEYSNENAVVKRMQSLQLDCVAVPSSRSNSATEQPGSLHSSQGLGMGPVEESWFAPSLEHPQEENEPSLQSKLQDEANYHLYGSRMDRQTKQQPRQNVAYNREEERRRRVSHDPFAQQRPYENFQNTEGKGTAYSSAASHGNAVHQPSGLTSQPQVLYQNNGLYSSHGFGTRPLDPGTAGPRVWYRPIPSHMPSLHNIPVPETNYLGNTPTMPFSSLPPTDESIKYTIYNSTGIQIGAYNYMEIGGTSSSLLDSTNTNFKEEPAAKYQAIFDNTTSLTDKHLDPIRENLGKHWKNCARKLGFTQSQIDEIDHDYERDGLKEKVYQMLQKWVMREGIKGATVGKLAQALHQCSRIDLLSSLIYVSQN
Protocol: The purpose of this assay was to detect the in vitro inhibitory activity of WX009 on a variety of kinases. The kinases used in this assay included 413 kinases, and the activity detection method was provided by Eurofins Pharma Discovery Service A method of detecting ^33P radiolabeled kinase activity was used for the assay. The concentration of WX009 was 1 μM, and the concentration of ATP was 10 μM.

[1] = Plasma protein binding rate (PPB), mouse plasma; type: in vitro ADME, CD-1 mice; conditions: 2 μM, dialysis 4 hours 37° C.
Protocol: 796 μL of bank plasma from humans, SD rats and CD-1 mice (plasma purchased from BioreclamationIVT) were weighed, and the assay compound working solution or warfarin working solution was added so that the final concentration of the assay compound and warfarin in the plasma sample was 2 μM. The samples were mixed thoroughly. The final concentration of DMSO in the organic phase was 0.5%, 50 μL of plasma samples of the assay compound and warfarin were pipetted to a sample receiving plate, and the corresponding volume of the corresponding blank plasma or buffer was added immediately, so that the final volume in each sample well was 100 μL, wherein the volume ratio of plasma:dialysis buffer was 1:1. Stop solution was then added to these samples. These samples were used as T0 samples for determination of recovery and stability. The plasma samples of the assay compound and warfarin were added to the dosing end of each dialysis well, and blank dialysis buffer was added to the corresponding receiving end of the dialysis well. […] All samples were subjected to protein precipitation, and then analyzed by LC/MS/MS. Unbound rate (% Unbound), bound rate (% Bound), and recovery rate (% Recovery) of the compound were calculated using the following formulae: % Unbound=100*FC/TC, % Bond=100−% Unbound, and % Recovery=100*[…]/T0, […]

[2] = In vitro Caco-2 cell permeability assay; type: in vitro ADME; conditions: human, pH 7.4, Caco-2, 2 μM
Protocol: MEM (minimum essential medium) supplemented with 2 mM L-glutamine, 10% Fetal Bovine Serum (FBS), 100 U/mL penicillin-G and 100 μg/mL streptomycin was used for cell culture. The conditions for cell culture were 37±1° C., 5% CO2 and saturated humidity. When cells were grown to 80-90% confluency, trypsin (0.05%, w/v)/EDTA (0.02% w/v) digestion solution was added to digest the cells for seeding. The cells were seeded in BD Falcon's Transwell-96-well plate at a seeding density of 1×10^5 cells/cm^2. The cells were cultured in a carbon dioxide incubator for 22 days and then used for transport assay. […]
In this assay, liquid chromatography tandem mass spectrometry (LC/MS/MS) was used to semi-quantitatively analyze the peak area ratio of the assay compound and the control substances fenoterol, propranolol and digoxin to the internal standard in the starting solution, the receiving solution, and the supernatant of the dosing well. […]
Apparent permeability coefficient (Papp, cm/s), efflux rate and recovery rate were calculated using the following formulae.
The apparent permeability coefficient (Papp, cm/s) was calculated using the following formula: Papp=(dCr/dt)×Vr/(A×C0) […]
The efflux rate was calculated using the following formula: Efflux rate=Papp(BA)/Papp(AB) The recovery rate was calculated using the following formula: % recovery rate=100×[(Vr×Cr)+(Vd×Cd)]/(Vd×C0) […]

## CN1C(=S)[C@@H](NC(=O)c2ncn(Cc3ccccc3)n2)COc2cccnc21 [WX009]
RIP1
  inhibition at 1 µM: > 80%
[1]
  PPB_Unbound: 7.0%
[2]; 120 minutes, pH 7.40, read-out: Apparent permeability coefficient
  Papp at 120 min, 2 μM: 18.4 ×10⁻⁶ cm/s
[2]; Papp(BA)/Papp(AB), read-out: Efflux rate
  efflux ratio at 120 min, 2 μM: 0.75
